Molecular target: T1, Q46 protein aggregates (Homo sapiens, UniProt P42858)
T1 construct: fused on or other part: GST at the N-terminus, cut off with thrombin before the test to start aggregation; The wells held aggregated Q46 without GST
Assay: Q46 radioligand binding assay (RBA)
Conditions: 10 nM ligand [3H3]MK-3328
Procedure: Q46 Radioligand Binding Assay
For radioligand binding assays (RBA) GST-Q46 protein was generated based on a previous publication (Scherzinger et al. Cell, Vol. 90, 549-558, Aug. 8, 1997). For experiments 33 μM GST-Q46 was incubated with 150 μg/mL thrombin in assay buffer (150 mM NaCl, 50 mM Tris pH 8.0) and 2 mM CaCl2 for 16 hours at 37° C. Aggregated Q46 was pelleted by centrifugation for 5 minutes at 13,000 rpm in a bench top centrifuge and re-dissolved in the same volume of assay buffer. Test compounds were prepared by titration in DMSO at 11 concentrations from 33 μM to 1 nM. For the RBA, Q46 protein aggregates and test compounds were pre-incubated in assay buffer for 20 minutes at room temperature, in 140 μL/well in a 96-well plate (pp, round bottom). Then, ligand was added in 10 μL/well and incubated for 60 minutes at 37° C. Final assay concentrations were 1 μM to 30 pM test compound, 5 μM Q46 protein (equivalent monomer concentration) and 10 nM ligand [^3H3]MK-3328 (Harrision et al., ACS Med. Chem. Lett., 2 (2011), pp 498-502). Samples were transferred onto GF/B filter plates and washed 2× with 200 μL PBS using a Filtermate Harvester. After drying filter plates for 1 hour at 37° C., the back of the plates were sealed with foil and 30 μL/well scintillation fluid (Packard MicroScint 40) added, incubated for 15 minutes in the dark and counted in a TopCount reader. For analysis, replicate data from independent assay plates were normalized towards 0% and 100% inhibition using control wells of vehicle (0% inhibition) and 3 μM unlabelled MK-3328 (100% inhibition). IC50 values were determined with a sigmoidal inhibition model with four variables (top, bottom, slope, IC50) in a global fit using the normalized replicate data.

T1 sequence (P42858 with tags, fused parts or gaps with the stated changes, form open): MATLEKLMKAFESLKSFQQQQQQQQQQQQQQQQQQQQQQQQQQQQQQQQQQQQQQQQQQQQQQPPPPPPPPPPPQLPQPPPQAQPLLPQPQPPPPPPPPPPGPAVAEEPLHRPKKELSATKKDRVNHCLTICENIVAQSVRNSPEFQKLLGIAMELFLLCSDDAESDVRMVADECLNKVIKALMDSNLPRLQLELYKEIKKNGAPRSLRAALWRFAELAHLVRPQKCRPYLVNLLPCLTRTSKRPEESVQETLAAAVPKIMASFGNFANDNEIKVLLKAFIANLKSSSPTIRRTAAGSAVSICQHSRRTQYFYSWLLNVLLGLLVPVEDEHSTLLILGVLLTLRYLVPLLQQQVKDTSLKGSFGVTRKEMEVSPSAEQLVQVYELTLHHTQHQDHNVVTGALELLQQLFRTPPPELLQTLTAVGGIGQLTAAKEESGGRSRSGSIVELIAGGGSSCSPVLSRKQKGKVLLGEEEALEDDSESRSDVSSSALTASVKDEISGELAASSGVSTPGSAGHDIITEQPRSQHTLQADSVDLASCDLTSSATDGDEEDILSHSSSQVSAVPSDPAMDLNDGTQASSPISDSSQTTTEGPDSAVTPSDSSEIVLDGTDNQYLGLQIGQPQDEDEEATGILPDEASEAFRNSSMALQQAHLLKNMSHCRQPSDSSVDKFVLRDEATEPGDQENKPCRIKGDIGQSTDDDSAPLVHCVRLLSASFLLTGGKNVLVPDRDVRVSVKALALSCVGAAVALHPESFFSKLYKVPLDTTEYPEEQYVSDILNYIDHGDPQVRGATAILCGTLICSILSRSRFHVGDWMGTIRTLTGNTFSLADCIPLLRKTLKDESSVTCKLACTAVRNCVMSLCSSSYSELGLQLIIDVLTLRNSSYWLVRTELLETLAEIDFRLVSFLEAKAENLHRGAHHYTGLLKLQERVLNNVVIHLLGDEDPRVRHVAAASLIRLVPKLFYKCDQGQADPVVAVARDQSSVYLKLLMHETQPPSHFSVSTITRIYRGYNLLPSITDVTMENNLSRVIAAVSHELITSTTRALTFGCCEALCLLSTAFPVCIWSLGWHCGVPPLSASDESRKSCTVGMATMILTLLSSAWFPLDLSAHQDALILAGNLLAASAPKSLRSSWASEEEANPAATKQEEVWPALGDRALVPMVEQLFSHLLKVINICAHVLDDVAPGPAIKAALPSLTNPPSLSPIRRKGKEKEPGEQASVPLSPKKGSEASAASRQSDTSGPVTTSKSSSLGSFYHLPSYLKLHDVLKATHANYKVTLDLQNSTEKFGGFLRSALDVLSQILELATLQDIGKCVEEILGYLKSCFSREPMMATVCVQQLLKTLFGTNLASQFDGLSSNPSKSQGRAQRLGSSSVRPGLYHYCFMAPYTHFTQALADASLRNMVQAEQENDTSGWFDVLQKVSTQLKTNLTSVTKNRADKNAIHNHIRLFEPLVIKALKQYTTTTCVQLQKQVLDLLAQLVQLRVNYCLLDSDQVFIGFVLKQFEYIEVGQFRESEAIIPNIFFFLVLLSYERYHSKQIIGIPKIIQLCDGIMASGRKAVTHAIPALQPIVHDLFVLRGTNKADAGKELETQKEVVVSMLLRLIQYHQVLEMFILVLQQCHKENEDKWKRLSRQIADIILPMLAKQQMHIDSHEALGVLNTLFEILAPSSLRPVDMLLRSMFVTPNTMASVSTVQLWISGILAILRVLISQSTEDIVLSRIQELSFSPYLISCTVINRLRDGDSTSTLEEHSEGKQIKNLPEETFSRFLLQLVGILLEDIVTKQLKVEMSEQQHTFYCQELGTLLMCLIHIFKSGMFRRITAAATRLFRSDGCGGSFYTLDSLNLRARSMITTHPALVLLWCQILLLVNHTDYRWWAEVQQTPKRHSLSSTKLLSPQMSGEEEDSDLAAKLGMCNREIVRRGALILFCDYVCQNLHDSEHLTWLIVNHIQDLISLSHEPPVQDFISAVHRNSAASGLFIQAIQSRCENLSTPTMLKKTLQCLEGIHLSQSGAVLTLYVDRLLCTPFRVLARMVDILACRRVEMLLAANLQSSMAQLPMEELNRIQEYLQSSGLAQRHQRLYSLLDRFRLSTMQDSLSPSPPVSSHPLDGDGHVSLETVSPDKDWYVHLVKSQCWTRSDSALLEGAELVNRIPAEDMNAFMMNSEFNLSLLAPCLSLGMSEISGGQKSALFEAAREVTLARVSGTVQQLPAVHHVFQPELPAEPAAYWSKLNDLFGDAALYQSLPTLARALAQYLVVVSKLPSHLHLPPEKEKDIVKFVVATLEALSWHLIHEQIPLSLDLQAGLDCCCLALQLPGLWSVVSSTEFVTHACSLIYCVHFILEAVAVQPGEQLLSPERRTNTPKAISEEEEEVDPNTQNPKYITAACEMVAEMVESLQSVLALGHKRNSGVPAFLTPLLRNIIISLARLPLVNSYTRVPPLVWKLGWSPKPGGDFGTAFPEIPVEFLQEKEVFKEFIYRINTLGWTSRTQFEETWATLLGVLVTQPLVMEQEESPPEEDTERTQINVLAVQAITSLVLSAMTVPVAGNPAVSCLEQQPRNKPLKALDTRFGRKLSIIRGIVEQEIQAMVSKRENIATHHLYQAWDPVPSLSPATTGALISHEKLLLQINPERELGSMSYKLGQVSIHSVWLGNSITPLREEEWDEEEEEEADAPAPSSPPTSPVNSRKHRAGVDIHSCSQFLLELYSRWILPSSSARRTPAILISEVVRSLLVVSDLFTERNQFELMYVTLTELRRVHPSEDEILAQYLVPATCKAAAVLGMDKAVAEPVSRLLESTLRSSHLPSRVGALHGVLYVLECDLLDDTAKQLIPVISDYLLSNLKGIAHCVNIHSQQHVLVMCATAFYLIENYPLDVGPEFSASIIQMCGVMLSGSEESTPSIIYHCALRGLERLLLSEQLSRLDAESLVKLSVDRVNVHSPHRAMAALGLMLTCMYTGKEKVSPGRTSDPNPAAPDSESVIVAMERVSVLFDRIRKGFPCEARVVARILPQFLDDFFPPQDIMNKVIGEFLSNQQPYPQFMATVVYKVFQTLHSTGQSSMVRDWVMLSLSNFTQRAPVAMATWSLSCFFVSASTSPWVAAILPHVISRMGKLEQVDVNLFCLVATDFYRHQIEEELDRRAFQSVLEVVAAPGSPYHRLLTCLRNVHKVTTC

Row | IC50 | Structure (SMILES)
1 | < 100 nM | COc1ccc2c(c1)CN(c1ccc3oc(-c4cccnc4)nc3c1)C2=O [5-methoxy-2-[2-(pyridin-3-yl)-1,3-benzoxazol-5-yl]-2,3-dihydro-1H-isoindol-1-one]
2 | < 100 nM | c1cncc(COc2ccc3nc(-c4cccnc4)oc3c2)c1 [2-(pyridin-3-yl)-6-(pyridin-3-ylmethoxy)-1,3-benzoxazole]
3 | < 100 nM | N#Cc1ccncc1-c1cc2cc(OCc3cccnc3)ccc2o1 [3-[5-(pyridin-3-ylmethoxy)-1-benzofuran-2-yl]pyridine-4-carbonitrile]
4 | < 100 nM | BrC1=C(c2cc3cc(OCc4cccnc4)ccc3o2)N2CCN=C2S1 [3-{[(2-{2-bromo-5H,6H-imidazo[2,1-b][1,3]thiazol-3-yl}-1-benzofuran-5-yl)oxy]methyl}pyridine]
5 | 100 to 500 nM | COc1ccc(NCc2ccc3oc(-c4cccnc4)nc3c2)nc1 [5-methoxy-N-{[2-(pyridin-3-yl)-1,3-benzoxazol-5-yl]methyl}pyridin-2-amine]
6 | < 100 nM | C1=C(c2cc3cc(OCc4cccnc4)ccc3o2)N2CCN=C2S1 [3-{[(2-{5H,6H-imidazo[2,1-b][1,3]thiazol-3-yl}-1-benzofuran-5-yl)oxy]methyl}pyridine]
7 | < 100 nM | O=C(Nc1ccc2oc(-c3cccnc3)nc2c1)c1ccc(C(F)(F)F)nc1 [N-[2-(pyridin-3-yl)-1,3-benzoxazol-5-yl]-6-(trifluoromethyl)pyridine-3-carboxamide]
8 | < 100 nM | COc1ccc(COc2ccc3oc(-c4ccnc(C)c4)nc3c2)nc1 [5-[(5-methoxypyridin-2-yl)methoxy]-2-(2-methylpyridin-4-yl)-1,3-benzoxazole]
9 | 100 to 500 nM | COc1cccnc1C(=O)Nc1ccc2oc(-c3cccnc3)nc2c1 [3-methoxy-N-[2-(pyridin-3-yl)-1,3-benzoxazol-5-yl]pyridine-2-carboxamide]
10 | < 100 nM | COc1ccnc(C(=O)Nc2ccc3oc(-c4ccc(=O)n(C)n4)nc3c2)c1 [4-methoxy-N-[2-(1-methyl-6-oxo-1,6-dihydropyridazin-3-yl)-1,3-benzoxazol-5-yl]pyridine-2-carboxamide]
11 | < 100 nM | CNC(=O)c1ccc(-c2nc3cc(OCc4ccc(OC)cn4)ccc3o2)cn1 [5-{5-[(5-methoxypyridin-2-yl)methoxy]-1,3-benzoxazol-2-yl}-N-methylpyridine-2-carboxamide]
12 | 100 to 500 nM | COc1ccc(Nc2ccc3oc(-c4cccnc4)nc3c2)cc1 [N-(4-methoxyphenyl)-2-(pyridin-3-yl)-1,3-benzoxazol-5-amine]
13 | < 100 nM | Cn1cc(-c2ccc(COc3cnc4oc(-c5cccnc5)nc4c3)nc2)cn1 [5-(1-methyl-1H-pyrazol-4-yl)-2-({[2-(pyridin-3-yl)-[1,3]oxazolo[5,4-b]pyridin-6-yl]oxy}methyl)pyridine]
14 | 100 to 500 nM | COc1ccc2c(=O)n(-c3ccc4oc(-c5cccnc5)nc4c3)ccc2c1 [6-methoxy-2-[2-(pyridin-3-yl)-1,3-benzoxazol-5-yl]-1,2-dihydroisoquinolin-1-one]
15 | < 100 nM | COc1cc(C(=O)Nc2ccc3oc(-c4cccnc4)nc3c2)on1 [3-methoxy-N-[2-(pyridin-3-yl)-1,3-benzoxazol-5-yl]-1,2-oxazole-5-carboxamide]
16 | < 100 nM | COc1ccc(COc2ccc3oc(-c4ccncn4)nc3c2)nc1 [5-[(5-methoxypyridin-2-yl)methoxy]-2-(pyrimidin-4-yl)-1,3-benzoxazole]
17 | < 100 nM | CSc1ccc(C(=O)Nc2ccc3oc(-c4cccnc4)nc3c2)cc1 [4-(methylsulfanyl)-N-[2-(pyridin-3-yl)-1,3-benzoxazol-5-yl]benzamide]
18 | < 100 nM | COc1ccc(COc2ccc3oc(-c4ccc(N)nc4)nc3c2)nc1 [5-{5-[(5-methoxypyridin-2-yl)methoxy]-1,3-benzoxazol-2-yl}pyridin-2-amine]
19 | < 100 nM | COc1ccc(COc2ccc3oc(-c4cncc(C)c4)nc3c2)nc1 [5-[(5-methoxypyridin-2-yl)methoxy]-2-(5-methylpyridin-3-yl)-1,3-benzoxazole]
20 | 100 to 500 nM | COc1ccc(C(C)Oc2cnc3oc(-c4cccnc4)nc3c2)nc1 (stereo not drawn) [3-{6-[1-(5-methoxypyridin-2-yl)ethoxy]-[1,3]oxazolo[5,4-b]pyridin-2-yl}pyridine]
21 | < 100 nM | COc1ccc(/C=C/C(=O)Nc2ccc3oc(-c4cccnc4)nc3c2)cc1 [(2E)-3-(4-methoxyphenyl)-N-[2-(pyridin-3-yl)-1,3-benzoxazol-5-yl]prop-2-enamide]

Row | IC50 | Structure (SMILES)
22 | < 100 nM | Oc1ccc(COc2ccc3oc(-c4cccnc4)nc3c2)nc1 [6-({[2-(pyridin-3-yl)-1,3-benzoxazol-5-yl]oxy}methyl)pyridin-3-ol]
23 | < 100 nM | COc1ccc(C(=O)Nc2cnc3oc(-c4cccc(C)c4)nc3c2)cc1 [4-methoxy-N-[2-(3-methylphenyl)[1,3]oxazolo[5,4-b]pyridin-6-yl]benzamide]
24 | < 100 nM | COc1ccc(OCc2ccc3oc(-c4cccnc4)nc3c2)nc1 [5-{[(5-methoxypyridin-2-yl)oxy]methyl}-2-(pyridin-3-yl)-1,3-benzoxazole]
25 | < 100 nM | Brc1cnccc1-c1nc2ccc(OCCN3CCOCC3)cc2s1 [2-(3-bromopyridin-4-yl)-6-[2-(morpholin-4-yl)ethoxy]-1,3-benzothiazole]
26 | < 100 nM | COc1ccc(COc2ccc3oc(-c4cccc(OCc5ccccc5)c4)nc3c2)nc1 [2-[3-(benzyloxy)phenyl]-5-[(5-methoxypyridin-2-yl)methoxy]-1,3-benzoxazole]
27 | < 100 nM | Cn1nc(-c2nc3cc(OCc4ccc(O)cn4)ccc3o2)ccc1=O [6-{5-[(5-hydroxypyridin-2-yl)methoxy]-1,3-benzoxazol-2-yl}-2-methyl-2,3-dihydropyridazin-3-one]
28 | < 100 nM | Cn1cc(COc2ccc3oc(-c4ccncc4C#N)cc3c2)cn1 [4-{5-[(1-methyl-1H-pyrazol-4-yl)methoxy]-1-benzofuran-2-yl}pyridine-3-carbonitrile]
29 | < 100 nM | Cn1nc(-c2nc3cc(OCc4ccc(OCCF)cn4)cnc3o2)ccc1=O [6-(6-{[5-(2-fluoroethoxy)pyridin-2-yl]methoxy}-[1,3]oxazolo[5,4-b]pyridin-2-yl)-2-methyl-2,3-dihydropyridazin-3-one]
30 | < 100 nM | COc1ccc(COc2ccc3oc(-c4ccc(C(F)(F)F)nc4)nc3c2)nc1 [5-[(5-methoxypyridin-2-yl)methoxy]-2-[6-(trifluoromethyl)pyridin-3-yl]-1,3-benzoxazole]
31 | < 100 nM | COc1ccc(COc2cnc3oc(-c4cccnc4)nc3c2)nn1 [3-methoxy-6-({[2-(pyridin-3-yl)-[1,3]oxazolo[5,4-b]pyridin-6-yl]oxy}methyl)pyridazine]
32 | < 100 nM | COc1ccc(COc2ccc3oc(-c4cccnc4)nc3c2)nc1 [5-[(5-methoxypyridin-2-yl)methoxy]-2-(pyridin-3-yl)-1,3-benzoxazole]
33 | < 100 nM | O=C(Nc1ccc2oc(-c3cccnc3)nc2c1)c1ccc2c(c1)OCO2 [N-[2-(pyridin-3-yl)-1,3-benzoxazol-5-yl]-2H-1,3-benzodioxole-5-carboxamide]
34 | < 100 nM | COc1cnc(N2CCN(c3ccc4oc(-c5cccnc5)nc4c3)CC2)nc1 [5-[4-(5-methoxypyrimidin-2-yl)piperazin-1-yl]-2-(pyridin-3-yl)-1,3-benzoxazole]
35 | < 100 nM | O=C(Nc1ccc2oc(-c3cccnc3)nc2c1)c1cccnc1Oc1ccccc1 [2-phenoxy-N-[2-(pyridin-3-yl)-1,3-benzoxazol-5-yl]pyridine-3-carboxamide]
36 | 100 to 500 nM | COc1ccc(COc2ccc3oc(N4CC(F)C4)nc3c2)nc1 [2-(3-fluoroazetidin-1-yl)-5-[(5-methoxypyridin-2-yl)methoxy]-1,3-benzoxazole]
37 | < 100 nM | COc1ccc(COc2ccc3oc(-c4ccc[n+]([O-])c4)nc3c2)nc1 [3-{5-[(5-methoxypyridin-2-yl)methoxy]-1,3-benzoxazol-2-yl}pyridin-1-ium-1-olate]
38 | 100 to 500 nM | O=C(Cc1ccc2oc(-c3cccnc3)nc2c1)c1ccccn1 [1-(pyridin-2-yl)-2-[2-(pyridin-3-yl)-1,3-benzoxazol-5-yl]ethan-1-one]
39 | < 100 nM | CC(=O)Oc1ccc(C(=O)Nc2ccc3oc(-c4ccc(Cl)cc4)nc3c2)cc1 [4-{[2-(4-chlorophenyl)-1,3-benzoxazol-5-yl]carbamoyl}phenyl acetate]
40 | < 100 nM | COc1ccc(C(=O)Nc2ccc3oc(-c4ccc(OC)cc4)nc3c2)cc1 [4-methoxy-N-[2-(4-methoxyphenyl)-1,3-benzoxazol-5-yl]benzamide]
41 | < 100 nM | O=C(Nc1ccc2oc(-c3cccnc3)nc2c1)c1cccc(OCc2ccccc2)c1 [3-(benzyloxy)-N-[2-(pyridin-3-yl)-1,3-benzoxazol-5-yl]benzamide]
42 | < 100 nM | O=C(Nc1ccc2oc(-c3cccnc3)nc2c1)c1cnc(-c2ccccc2)nc1 [2-phenyl-N-[2-(pyridin-3-yl)-1,3-benzoxazol-5-yl]pyrimidine-5-carboxamide]
